Common to all, as to type: in vivo, mouse
For assay [1], the system named is C57Bl/6 mice with unilateral ureter obstruction (UUO). The assay is described as follows: Sirius Red staining of kidney sections, UUO model of renal fibrosis. To be noted: 3 mg/kg subcutaneously the day before and daily for 14 days after UUO. Here is the method:
The effect of ND-13 on renal disease was then assessed. Unilateral ureter obstruction (UUO) was chosen as a model of renal disease to determine if ND-13 has a protective effect. The UUO model is an known model of human and animal kidney disease, which mimics the effects of chronic kidney disease and diabetes (i.e., diabetic nephropathy), due to its capability of generating a progressive renal (tubule interstitial) fibrosis and has advantages of good reproducibility, a short time course and the presence of a contralateral kidney as control.
C57Bl/6 control mice as well as DJ-1 knockout mice were subjected to UUO in order to examine mechanisms involved in renal tubule interstitial fibrosis in vivo and to determine if ND-13 has a protective effect against renal disease. DJ-1 knockout mice used herein were from the original F2 hybrid strain (129/SvXC57BL/6J) that contained the mutated DJ-1 allele (DJ-1−/−) backcrossed to wild-type C57BL/6J for >20 generations and genotyped. […]
Renal interstitial fibrosis was assessed in the mice by Sirius Red staining. […] Sirius Red staining was examined with an Olympus BX-41 microscope and the amount of collagen in the kidney was quantified by ImageJ software. Two images of about 70% of the renal cortical sections were used in the quantification. […]

Assay [2] has the same test system. The assay is described as follows: Urinary NGAL ELISA after UUO. To be noted: urine 14 days after UUO, 3 mg/kg subcutaneously daily. An excerpt: (§1) C57Bl/6 control mice as well as DJ-1 knockout mice were subjected to UUO in order to examine mechanisms involved in renal tubule interstitial fibrosis in vivo and to determine if ND-13 has a protective effect against renal disease. DJ-1 knockout mice used herein were from the original F2 hybrid strain (129/SvXC57BL/6J) that contained the mutated DJ-1 allele (DJ-1−/−) backcrossed to wild-type C57BL/6J for >20 generations and genotyped. Prior to UUO, ND-13 peptide and scrambled control peptide (3 mg/kg diluted in […] of saline) were injected subcutaneously to C57Bl/6 and DJ-1 knockout mice the day before performing the complete UUO. For UUO surgery, the procedure was performed as follows. Briefly, mice were anesthetized with isofluorane (3-5% for induction and 1-3% for maintenance) and divided into two experimental groups: the UUO group and the sham operation group. In the UUO group, mice were shaved on the left side of the abdomen, a vertical incision was made through the skin with a scalpel and the skin was retracted. A second incision was made through the peritoneum to expose the kidney. The left ureter was ligated twice 15 mm below the renal pelvis with surgical silk and the ureter was then severed between the two ligatures. Then, the ligated kidney was placed gently back into its correct anatomical position and sterile saline was added to replenish loss of fluid. […]
In general terms: An ELISA detects its analyte on a solid surface through an enzyme-linked reagent.

Assay [3] concerns DJ-1 knockout mice with unilateral ureter obstruction (UUO). The assay is described as follows: Urinary NGAL ELISA after UUO. To be noted: urine 14 days after UUO, 3 mg/kg subcutaneously daily.
Excerpt: as §1

The test system of assay [4] is TNF-alpha, IL-6, Col1a1 and TGF-beta mRNA in kidneys of C57Bl/6 mice with UUO. The assay is described as follows: qRT-PCR of renal inflammatory and fibrotic marker mRNA after UUO. Conditions: 14 days after UUO, normalized by GAPDH. The source says: (§2) C57Bl/6 control mice as well as DJ-1 knockout mice were subjected to UUO in order to examine mechanisms involved in renal tubule interstitial fibrosis in vivo and to determine if ND-13 has a protective effect against renal disease. DJ-1 knockout mice used herein were from the original F2 hybrid strain (129/SvXC57BL/6J) that contained the mutated DJ-1 allele (DJ-1−/−) backcrossed to wild-type C57BL/6J for >20 generations and genotyped. Prior to UUO, ND-13 peptide and scrambled control peptide (3 mg/kg diluted in […] of saline) were injected subcutaneously to C57Bl/6 and DJ-1 knockout mice the day before performing the complete UUO. For UUO surgery, the procedure was performed as follows. Briefly, mice were anesthetized with isofluorane (3-5% for induction and 1-3% for maintenance) and divided into two experimental groups: the UUO group and the sham operation group. In the UUO group, mice were shaved on the left side of the abdomen, a vertical incision was made through the skin with a scalpel and the skin was retracted. A second incision was made through the peritoneum to expose the kidney. The left ureter was ligated twice 15 mm below the renal pelvis with surgical silk and the ureter was then severed between the two ligatures. Then, the ligated kidney was placed gently back into its correct anatomical position and sterile saline was added to replenish loss of fluid. The incisions were sutured and mice were individually caged. Buprenorphine was used as an analgesic. 24 hours after UUO surgery, the ND-13 peptide and scrambled control peptide (3 mg/kg diluted in […] of saline) were injected subcutaneously to C57Bl/6 and DJ-1 knockout mice and then injected every day thereafter for 14 days following UUO. Untreated normal C57Bl/6 mice served as a control. After 14 days, urine was collected and the mice were sacrificed. Tissues, including the kidneys, were obtained for analyses.
(§3) Next, the effect of ND-13 on mRNA expression of inflammatory and fibrotic markers in the kidneys of mice with UUO was tested. Briefly, RNA was extracted from whole renal tissue harvested from ND-13-treated C57Bl/6 and DJ-1 knockout mice 14 days after the UUO procedure. RNA extracted from untreated C57Bl/6 mice served as the control. The extracted RNA was subjected to qRT-PCR using standard methods. The mRNA expression of TNF-alpha (tumor necrosis factor alpha), IL-6 (Interleukin 6), Col1a1 (collagen, type I, alpha 1) and TGF-beta (transforming growth factor beta) were quantified by qRT-PCR in mice from each group. Data were normalized by expression of the house keeping gene GAPDH (glyceraldehyde 3-phosphate dehydrogenase). […] The increased renal expressions of TNF alpha and IL-6, and TGF-beta associated with UUO was decreased by ND-13 in both C57Bl/6 mice (FIGS. 3A, 3B, and 3D) and DJ-1 knockout mice (FIGS. 3E, 3F, and […]).

Assay [5] has as its system TNF-alpha, IL-6, Col1a1 and TGF-beta mRNA in kidneys of DJ-1 knockout mice with UUO. Described as above. Conditions: 14 days after UUO, normalized by GAPDH.
Excerpt: as §2, §3

Regarding YGRKKRRKGAEEMETVIPVD [ND-13], the “renal interstitial fibrosis (collagen, Sirius Red staining)” value in assay [1] is recorded as “prevented fibrosis”. Besides, the “urinary NGAL (marker of renal damage)” value in assay [2] was “decreased urinary NGAL to control levels”. In addition, the “urinary NGAL (marker of renal damage)” value in assay [3] is reported as “not protected”. Moreover, in assay [4], the “renal mRNA expression of Col1a1” value is “decreased”, the “renal mRNA expression of IL-6” value is “decreased”, the “renal mRNA expression of TGF-beta” value is given as “decreased” and the “renal mRNA expression of TNF-alpha” value is reported as “decreased”. For the same sequence, in assay [5], the “renal mRNA expression of Col1a1” value is “not DJ-1 knockout mice”, the “renal mRNA expression of IL-6” value is listed as “decreased”, the “renal mRNA expression of TGF-beta” value is given as “decreased” and the “renal mRNA expression of TNF-alpha” value is listed as “decreased”.

The values above are taken from US20220251153A1, “PEPTIDES FOR THE TREATMENT OF RENAL DISORDERS” (THE GEORGE WASHINGTON UNIVERSITY, priority 2019, published 2022).
